“And” between values parts separate entries of the source, which are not always exact repeats. Identical values can stand only once. Square brackets hold non-standard residues; d marks the D form. Peptide text beside a SMILES is read from it. Ala(indol-4-yl) = N[C@@H](Cc1cccc2[nH]ccc12)C(=O)O; NMeR = CN[C@@H](CCCNC(=N)N)C(=O)O; Tle = CC(C)(C)[C@H](N)C(=O)O
Legend:
[1] = Degradation in human plasma (HPLC peak area); assay type: in vitro ADME; conditions: human; 25% plasma, 37° C., 0.5 mg/mL polypeptide; read-out: half-time, Plasma Human (converted)
From the text: For the degradation studies, data were plotted in linear form as a semi-log plot with SigmaPlot for Windows Version 4.00. Linear regression on these plots provided the parameters used to calculate the half-time (t1/2) for degradation of each polypeptide. The correlation coefficient (R) for the linear regression was taken as a measure of the goodness-of-fit.

[2] = Body temperature (hypothermia) in rats; conditions: for change in body temperature: 5 mg/kg ip

In the case of `CN[C@@H](CCCNC(=N)N)C(=O)N[C@@H](CCCCN)C(=O)N1CCC[C@H]1C(=O)N[C@@H](Cc1cccc2[nH]ccc12)C(=O)N[C@H](C(=O)N[C@@H](CC(C)C)C(=O)O)C(C)(C)C` [NT69L] (H-[NMeR]KP[Ala(indol-4-yl)][Tle]L-OH; N-terminus and C-terminus assumed), the half-life at 0.5 mg/mL [1] is reported as 20.8 days, the “time up to which body temperature reduction remained significant” value ([2]; 1 mg/kg intraperitoneal) is reported as “up to 300 minutes” and the “Peak BT change” value ([2]; 1 mg/kg intraperitoneal, rats) is reported as −5.3 °C and −5.3 @ ° C. The “body temperature lowering after the first injection” value ([2]; 1 mg/kg ip daily, day 1) was “about 4 degrees”, the “body temperature lowering after the second injection” value ([2]; 1 mg/kg ip daily, day 2) was 1.5 degrees and the “body temperature lowering after the third injection” value ([2]; 1 mg/kg ip daily, day 3) was “no body temperature lowering was detected”. The “reduction in body temperature on 5× challenge” value ([2]; 5 mg/kg ip after four days at 1 mg/kg ip) was “comparable to the reduction normally observed in naive rats”, the “change in body temperature” value ([2]; 30 minutes after injection) was “about −3 °C” and the “change in body temperature” value ([2]; 77 minutes after injection) was “about −4 °C”. For the same compound, the induction of hypothermia ([2]; intraperitoneal administration (NT64L 1 mg/kg)) was “did induce”, the “ED50 BT” value ([2]; intraperitoneal, @ 90 min) was 0.4 mg/kg and the “peak reduction in body temperature” value ([2]; intraperitoneal, dose not restated) was 5.3 °C. For the same compound, the “ED50 body temperature lowering” value ([2]; ip, at 90 minutes) was 0.39 mg/kg, the “peak reduction in body temperature (change)” value ([2]; nasal, 5 mg/kg, at 30 minutes) was −1.4 °C and the “peak reduction in body temperature (change)” value ([2]; oral, 20 mg/kg) was −0.63 °C. The “time of peak reduction in body temperature” value ([2]; oral, 20 mg/kg) was 60 min.
